Reference: ChEMBL document CHEMBL3875177, “Design, synthesis and biological evaluation of [1,2,3]triazolo[4,5-d]pyrimidine derivatives possessing a hydrazone moiety as antiproliferative agents” (Eur J Med Chem, 2016)
Active and inactive are the calls of the source. No cut-off for these calls is given here.

How the values were obtained:
[1] = (§1) Antiproliferative activity against human MGC803 cells after 72 hrs by MTT assay; format: functional, cell-based; settings: MGC-803, 72 h
[2] = Antiproliferative activity against human MCF7 cells after 72 hrs by MTT assay; format: functional, cell-based; settings: MCF7, 72 h
[3] = Antiproliferative activity against human EC109 cells after 72 hrs by MTT assay; format: functional, cell-based; settings: ECa-109, 72 h
[4] = Antiproliferative activity against human GES-1 cells after 72 hrs by MTT assay; format: cell-based; settings: GES1, 72 h
MGC-803 [5] = experiment: as §1; format: functional, cell-based
[6] = Inhibition of colony formation in human MGC803 cells assessed as reduction in foci formation at 0.8 uM after 10 days by crystal violet staining based assay relative to control; format: functional; settings: MGC-803, 240 h
MGC-803 [7] = experiment: Induction of apoptosis in human MGC803 cells assessed as cell rounding at 1 to 4 uM after 24 hrs by Hoechst 33258 staining based fluorescence microscopic method; format: functional
MGC-803 [8] = experiment: Induction of apoptosis in human MGC803 cells assessed as chromatin shrinkage at 1 to 4 uM after 24 hrs by Hoechst 33258 staining based fluorescence microscopic method; format: functional, cell-based
MGC-803 [9] = experiment: Induction of apoptosis in human MGC803 cells assessed as formation of apoptotic bodies at 1 to 4 uM after 24 hrs by Hoechst 33258 staining based fluorescence microscopic method; format: functional, cell-based
MGC-803 [10] = experiment: Induction of apoptosis in human MGC803 cells after 24 hrs by Annexin-V FITC/propidium iodide staining based flow cytometry; format: functional, cell-based
MGC-803 [11] = experiment: Induction of apoptosis in human MGC803 cells at 1 uM after 24 hrs by Annexin-V FITC/propidium iodide staining based flow cytometry (reference value: 1.8%); format: functional
MGC-803 [12] = experiment: Induction of apoptosis in human MGC803 cells at 2 uM after 24 hrs by Annexin-V FITC/propidium iodide staining based flow cytometry (reference value: 1.8%); format: functional
MGC-803 [13] = experiment: Induction of apoptosis in human MGC803 cells at 4 uM after 24 hrs by Annexin-V FITC/propidium iodide staining based flow cytometry (reference value: 1.8%); format: functional
MGC-803 [14] = experiment: Induction of mitochondrial membrane potential loss in human MGC803 cells at 4 uM after 24 hrs by JC-1 staining based flow cytometry (reference value: 49.8%); format: functional
MGC-803 [15] = experiment: Induction of mitochondrial membrane potential loss in human MGC803 cells after 24 hrs by JC-1 staining based flow cytometry; format: functional, cell-based
MGC-803 [16] = experiment: Induction of apoptosis in human MGC803 cells assessed as increase in Bax protein expression after 24 hrs by Western blot method; format: functional, cell-based
MGC-803 [17] = experiment: Induction of apoptosis in human MGC803 cells assessed as increase in Bak protein expression after 24 hrs by Western blot method; format: functional, cell-based
MGC-803 [18] = experiment: Induction of apoptosis in human MGC803 cells assessed as increase in PUMA protein expression after 24 hrs by Western blot method; format: functional, cell-based
MGC-803 [19] = experiment: Induction of apoptosis in human MGC803 cells assessed as decrease in Bcl2 protein expression at 1 to 4 uM after 24 hrs by Western blot method; format: functional, cell-based
MGC-803 [20] = experiment: Induction of apoptosis in human MGC803 cells assessed as decrease in Mcl1 protein expression at 1 to 4 uM after 24 hrs by Western blot method; format: functional, cell-based
MGC-803 [21] = experiment: Induction of apoptosis in human MGC803 cells assessed as increase in caspase-3 protein expression at 1 to 4 uM after 24 hrs by Western blot method; format: functional, cell-based
MGC-803 [22] = experiment: Induction of apoptosis in human MGC803 cells assessed as increase in caspase-9 protein expression at 1 to 4 uM after 24 hrs by Western blot method; format: functional, cell-based
[23] = biological target: Lysine-specific histone demethylase 1A (Homo sapiens) (UniProt O60341); experiment: Inhibition of LSD1 (unknown origin) at 10 uM relative to control

SMILES: CCCSc1nc(N/N=C(\C)c2ccccc2O)c2nnn(Cc3cccc(Cl)c3)c2n1
- IC50 [1]: 6.5 µM
- IC50 [2]: 39.9 µM
- IC50 [3]: 13 µM

SMILES: CCCSc1nc(N/N=C(\C)c2ccccc2O)c2nnn(Cc3ccccc3Cl)c2n1
- IC50 [1]: 35 µM
- IC50 [2]: > 64 µM
- IC50 [3]: > 64 µM

SMILES: CCCSc1nc(N/N=C/c2c(O)ccc3ccccc23)c2nnn(Cc3ccccc3)c2n1
- IC50 [1]: 3.71 µM
- IC50 [2]: 6.4 µM
- IC50 [3]: 9.29 µM
- IC50 [4]: 13.1 µM

SMILES: CCCSc1nc(N/N=C(\C)c2ccc(Br)cc2)c2nnn(Cc3ccccc3)c2n1
- IC50 [1]: 6.02 µM
- IC50 [2]: 13 µM
- IC50 [3]: 4.67 µM

SMILES: C#CCSc1nc(N/N=C(\C)c2ccccc2O)c2nnn(Cc3ccccc3)c2n1
- IC50 [1]: 3.82 µM
- IC50 [2]: 11.2 µM
- IC50 [3]: 5.25 µM

SMILES: CCCSc1nc(N/N=C/c2ccccc2F)c2nnn(Cc3ccccc3)c2n1
- IC50 [1]: > 64 µM
- IC50 [2]: > 64 µM
- IC50 [3]: > 64 µM

SMILES: CCCSc1nc(N/N=C(\C)c2ccccc2O)c2nnn(Cc3ccccc3)c2n1
- IC50 [1]: 2.31 µM
- IC50 [2]: 11 µM
- IC50 [3]: 11.1 µM
- IC50 [4]: 32.3 µM

SMILES: CCCSc1nc(N/N=C(\C)c2ccccc2O)c2nnn(Cc3ccc(Cl)cc3)c2n1
- IC50 [1]: 7.1 µM
- IC50 [2]: 42.6 µM
- IC50 [3]: 11.2 µM

SMILES: CCCSc1nc(N/N=C(\C)c2ccccc2O)c2nnn(Cc3ccc(F)cc3)c2n1
- IC50 [1]: 11 µM
- IC50 [2]: > 64 µM
- IC50 [3]: 21.9 µM

SMILES: CCCSc1nc(N/N=C(\C)c2ccccc2O)c2nnn(CCc3cccs3)c2n1
- IC50 [1]: 16.4 µM
- IC50 [2]: > 64 µM
- IC50 [3]: 30.9 µM

SMILES: CCCSc1nc(N/N=C/c2cccs2)c2nnn(Cc3ccccc3)c2n1
- IC50 [1]: > 64 µM
- IC50 [2]: > 64 µM
- IC50 [3]: > 64 µM

SMILES: CCCSc1nc(N/N=C(\C)c2ccc(OC)cc2)c2nnn(Cc3ccccc3)c2n1
- IC50 [1]: 44.3 µM
- IC50 [2]: > 64 µM
- IC50 [3]: > 64 µM

SMILES: CCCSc1nc(N/N=C(\C)c2ccccc2O)c2nnn(Cc3ccc(O)cc3)c2n1
- IC50 [1]: 7.68 µM
- IC50 [2]: 9.52 µM
- IC50 [3]: 15.9 µM

SMILES: CCCSc1nc(N/N=C/c2ccc(N(C)C)cc2)c2nnn(Cc3ccccc3)c2n1
- IC50 [1]: 13.1 µM
- IC50 [2]: 12.2 µM
- IC50 [3]: 20 µM

SMILES: CCCSc1nc(N/N=C/c2cccnc2)c2nnn(Cc3ccccc3)c2n1
- IC50 [1]: 38.1 µM
- IC50 [2]: 58.7 µM
- IC50 [3]: > 64 µM

SMILES: CCCSc1nc(N/N=C(\C)c2ccccc2O)c2nnn(Cc3ccco3)c2n1
- IC50 [1]: 4.76 µM
- IC50 [2]: 29 µM
- IC50 [3]: 5.76 µM
- IC50 [4]: 33.3 µM

SMILES: CCCSc1nc(N/N=C(\C)c2ccccc2)c2nnn(Cc3ccccc3)c2n1
- IC50 [1]: 25.4 µM
- IC50 [2]: 32.1 µM
- IC50 [3]: 32.2 µM

SMILES: CCCSc1nc(N/N=C/c2ccc(Br)cc2)c2nnn(Cc3ccccc3)c2n1
- IC50 [1]: 34.9 µM
- IC50 [2]: > 64 µM
- IC50 [3]: > 64 µM

SMILES: CCCSc1nc(N/N=C(\C)c2ccccc2O)c2nnn(CCO)c2n1
- IC50 [1]: 47.1 µM
- IC50 [2]: > 64 µM
- IC50 [3]: 60.3 µM

SMILES: CCCSc1nc(N/N=C/c2c[nH]c3ccccc23)c2nnn(Cc3ccccc3)c2n1
- IC50 [1]: 7.41 µM
- IC50 [2]: 9.01 µM
- IC50 [3]: 8.69 µM

SMILES: CCCSc1nc(N/N=C/c2ccccc2Cl)c2nnn(Cc3ccccc3)c2n1
- IC50 [1]: 10.9 µM
- IC50 [2]: 13.8 µM
- IC50 [3]: 6.18 µM

SMILES: CCCSc1nc(N/N=C/c2ccc(Cl)cc2)c2nnn(Cc3ccccc3)c2n1
- IC50 [1]: > 64 µM
- IC50 [2]: > 64 µM
- IC50 [3]: > 64 µM

SMILES: CCCSc1nc(N/N=C/c2ccc([N+](=O)[O-])cc2)c2nnn(Cc3ccccc3)c2n1
- IC50 [1]: 10.1 µM
- IC50 [2]: 11 µM
- IC50 [3]: 6.64 µM

SMILES: C#CCSc1nc(N/N=C/c2c(O)ccc3ccccc23)c2nnn(Cc3ccccc3)c2n1
- IC50 [1]: 10.5 µM
- IC50 [2]: 8.97 µM
- IC50 [3]: 6.52 µM

SMILES: C#CCSc1nc(N/N=C/c2ccc(N(C)C)cc2)c2nnn(Cc3ccccc3)c2n1
- IC50 [1]: 7.62 µM
- IC50 [2]: > 64 µM
- IC50 [3]: 31.2 µM

SMILES: CCCSc1nc(N/N=C/c2ccc(C)cc2)c2nnn(Cc3ccccc3)c2n1
- IC50 [1]: > 64 µM
- IC50 [2]: > 64 µM
- IC50 [3]: > 64 µM

SMILES: CCCSc1nc(N/N=C/c2ccc3ccccc3c2)c2nnn(Cc3ccccc3)c2n1
- IC50 [1]: > 64 µM
- IC50 [2]: > 64 µM
- IC50 [3]: > 64 µM

SMILES: CCCSc1nc(N/N=C/c2ccccc2)c2nnn(Cc3ccccc3)c2n1
- IC50 [1]: > 64 µM
- IC50 [2]: > 64 µM
- IC50 [3]: > 64 µM

SMILES: C/C(=N\Nc1nc(SCc2ccccc2)nc2c1nnn2Cc1ccccc1)c1ccccc1O
- IC50 [1]: 0.85 µM
- Activity (MGC-803 [5]): Dose-dependent effect
- IC50 [2]: 0.95 µM
- IC50 [3]: 1.77 µM
- IC50 [4]: 56.2 µM
- inhibition at 0.8 µM [6]: 83%
- Activity (MGC-803 [7]): Active
- Activity (MGC-803 [8]): Active
- Activity (MGC-803 [9]): Active
- Activity (MGC-803 [10]): Dose-dependent effect
- Activity (MGC-803 [11]): <=8.7%
- Activity (MGC-803 [12]): <=24.8%
- Activity (MGC-803 [13]): <=53.9%
- Activity (MGC-803 [14]): <=90.4%
- Activity (MGC-803 [15]): Dose-dependent effect
- Activity (MGC-803 [16]): Dose-dependent effect
- Activity (MGC-803 [17]): Dose-dependent effect
- Activity (MGC-803 [18]): Dose-dependent effect
- Activity (MGC-803 [19]): Active
- Activity (MGC-803 [20]): Active
- Activity (MGC-803 [21]): Active
- Activity (MGC-803 [22]): Active
- inhibition [23]: 26.8%

SMILES: COc1cc(/C=N/Nc2nc(SCc3ccccc3)nc3c2nnn3Cc2ccccc2)cc(OC)c1OC
- IC50 [1]: 1.32 µM
- IC50 [2]: 13.5 µM
- IC50 [3]: 4.4 µM
- IC50 [4]: 48.3 µM

SMILES: CCCSc1nc(N/N=C(\C)c2ccc(O)cc2)c2nnn(Cc3ccccc3)c2n1
- IC50 [1]: 16.7 µM
- IC50 [2]: 21.6 µM
- IC50 [3]: 32.5 µM

SMILES: CCCSc1nc(N/N=C/c2cc(OC)c(OC)c(OC)c2)c2nnn(Cc3ccccc3)c2n1
- IC50 [1]: 9.41 µM
- IC50 [2]: > 64 µM
- IC50 [3]: 4.06 µM
- IC50 [4]: > 64 µM

SMILES: CCCSc1nc(N/N=C/c2cccc(Cl)c2)c2nnn(Cc3ccccc3)c2n1
- IC50 [1]: > 64 µM
- IC50 [2]: > 64 µM
- IC50 [3]: > 64 µM

SMILES: O=c1[nH]cc(F)c(=O)[nH]1 [FLUOROURACIL]
- IC50 [1]: 7.35 µM
- IC50 [2]: 9.25 µM
- IC50 [3]: 10.6 µM

SMILES: CCCSc1nc(N/N=C(\C)c2ccccc2O)c2nnn(Cc3ccc(Br)cc3)c2n1
- IC50 [1]: 11.3 µM
- IC50 [2]: 15.6 µM
- IC50 [3]: 36.1 µM

SMILES: C#CCSc1nc(N/N=C/c2cc(OC)c(OC)c(OC)c2)c2nnn(Cc3ccccc3)c2n1
- IC50 [1]: 4.67 µM
- IC50 [2]: 17 µM
- IC50 [3]: 6.54 µM
- IC50 [4]: 25.6 µM
